# Columns and labels:
# Assay in all cases: MIC in Tryptic Soy Broth, compounds alone and in mixtures
# Assay type in all cases: cell-based
# Gliocladium virens = conditions: 28° C.; for Minimum Inhibitory Concentration, Compound Used Alone: Tryptic Soy Broth
# Protocol: (§1) Determinations of minimum inhibitory concentrations (MIC's) of the two compounds (pyrithione salts and/or polymyxin sulfate) in a nutrient broth (alone and in mixtures) were conducted to evaluate interactions. Stock solutions of pyrithione salts and/or polymyxin salts were diluted in Tryptic Soy Broth (Difco), and the dilutions were inoculated with an equal volume of bacterial culture (10^6 /ml) or fungal spore suspension (10^5 /ml) in Tryptic Soy Broth and incubated at 28° C. for 3-7 days.
# (§2) The interactions of the antimicrobials were determined according to accepted procedures (M. C. Berenbaum [Tables 1 and 2] and P. F. Dougherty "Microdilution Transfer Plate Technique for Determining In Vitro Synergy of Antimicrobial Agents", ANTIMICROBIAL AGENTS AND CHEMOTHERAPY, Vol. 11, No. 2, p. 225-228 (Feb. 1977, American Society for Microbiology) [Tables 3 and 4]). The concentration of each agent in the combination that inhibits the organisms is expressed as a fraction of the concentration that causes the same effect when the same agent is tested alone (i.e., its fractional inhibitory concentration, FIC). If the sum of the FIC's is 1, the combination is additive in its antimicrobial effect; if the sum is <1, the combination is synergistic; and if the sum is >1, the combination is antagonistic.
# (§3) ^a Compounds were serially diluted in Tryptic soy Broth (DIFCO),
# (§4) ^b Each dilution contained 10^6 bacteria/ml of 10^5 fungi/ml.
# (§5) ^a Stock solutions of ZP in dimethylsulfoxide and PB in sterile water
# Candida albicans = conditions: 28° C.; for Minimum Inhibitory Concentration, Compound Used Alone: Tryptic Soy Broth
# Protocol: as §1, §2, §3, §4, §5
# [1] = tested on: Trichophyton mentagrophytes; conditions: 28° C.; for Minimum Inhibitory Concentration, Compound Used Alone: Tryptic Soy Broth
# Protocol: as §1, §2, §3, §4, §5
# Pseudomonas oleovorans = conditions: 28° C.; for Minimum Inhibitory Concentration, Compound Used Alone: Tryptic Soy Broth
# Protocol: as §1, §2, §3, §4, §5
# Aureobasidium pullulans = conditions: 28° C.; for Minimum Inhibitory Concentration, Compound Used Alone: Tryptic Soy Broth
# Protocol: as §1, §2, §3, §4, §5
# Cephalosporium sp. = conditions: 28° C.; for Minimum Inhibitory Concentration, Compound Used Alone: Tryptic Soy Broth
# Protocol: as §1, §2, §3, §4, §5
# Fusarium solani = conditions: 28° C.; for Minimum Inhibitory Concentration, Compound Used Alone: Tryptic Soy Broth
# Protocol: as §1, §2, §3, §4, §5
# Alcaligens faecalis = conditions: 28° C.; for Minimum Inhibitory Concentration, Compound Used Alone: Tryptic Soy Broth
# Protocol: as §1, §2, §3, §4, §5
# Aspergillus niger = conditions: 28° C.; for Minimum Inhibitory Concentration, Compound Used Alone: Tryptic Soy Broth
# Protocol: as §1, §2, §3, §4, §5
# Pseudomonas Stutzeri = conditions: 28° C.; for Minimum Inhibitory Concentration, Compound Used Alone: Tryptic Soy Broth
# Protocol: as §1, §2, §3, §4, §5
# Penicillin pinophilium = conditions: 28° C.; for Minimum Inhibitory Concentration, Compound Used Alone: Tryptic Soy Broth
# Protocol: as §1, §2, §3, §4, §5
# Proteus mirabilis = conditions: 28° C.; for Minimum Inhibitory Concentration, Compound Used Alone: Tryptic Soy Broth
# Protocol: as §1, §2, §3, §4, §5
# Chaetomium globosium = conditions: 28° C.; for Minimum Inhibitory Concentration, Compound Used Alone: Tryptic Soy Broth
# Protocol: as §1, §2, §3, §4, §5
# Pseudomonas aeruginosa = conditions: 28° C.; for Minimum Inhibitory Concentration, Compound Used Alone: Tryptic Soy Broth
# Protocol: as §1, §2, §3, §4, §5
# Pseudomonas fluorescens = conditions: 28° C.; for Minimum Inhibitory Concentration, Compound Used Alone: Tryptic Soy Broth
# Protocol: as §1, §2, §3, §4, §5
# Citrobacter freundii = conditions: 28° C.; for Minimum Inhibitory Concentration, Compound Used Alone: Tryptic Soy Broth
# Protocol: as §1, §2, §3, §4, §5
# Pseudomonas rubescens = conditions: 28° C.; for Minimum Inhibitory Concentration, Compound Used Alone: Tryptic Soy Broth
# Protocol: as §1, §2, §3, §4, §5
# Fusarium sp. = conditions: 28° C.
# Excerpt: as §3, §4, §5
# [2] = Table 1, 6-7 days, PB sulfate 7610 units/mg
# [3] = Table 2, 7 days, PB sulfate 7730 units/mg
# [4] = Table 1, concentration of the component in SP+PB mixture, SP/PB ratio 1/20-1/10, 6-7 days
# [5] = Table 2, concentration of the component in ZP+PB mixture, ZP/PB ratio 1/32-1/8, 7 days
# [6] = Table 1, 3 days, PB sulfate 7610 units/mg
# [7] = Table 1, concentration of the component in SP+PB mixture, SP/PB ratio 650, 3 days
# [8] = Table 2, 6 days, PB sulfate 7730 units/mg
# [9] = Table 1, concentration of the component in SP+PB mixture, SP/PB ratio 1, 6-7 days
# [10] = Table 2, concentration of the component in ZP+PB mixture, ZP/PB ratio 1/8-1, 7 days
substance,measurement,setting,value
Polymyxin B sulfate [PB],"Minimum Inhibitory Concentration, Compound Used Alone",Gliocladium virens; [2],74.7 ppm
same,"Minimum Inhibitory Concentration, Mixture","Gliocladium virens; Table 1, concentration of the component in SP+PB mixture, SP/PB ratio 1/10-1, 6-7 days",21.3 ppm
same,"Minimum Inhibitory Concentration, Compound Used Alone",Gliocladium virens; [3],64.0 ppm
same,"Minimum Inhibitory Concentration, Mixture","Gliocladium virens; Table 2, concentration of the component in ZP+PB mixture, ZP/PB ratio 1-2, 7 days",20.0 ppm
same,"Minimum Inhibitory Concentration, Compound Used Alone",Candida albicans; [2],256.0 ppm
same,"Minimum Inhibitory Concentration, Mixture",Candida albicans; [4],64.0 ppm
same,"Minimum Inhibitory Concentration, Compound Used Alone",Candida albicans; [3],341.3 ppm
same,"Minimum Inhibitory Concentration, Mixture",Candida albicans; [5],74.7 ppm
same,"Minimum Inhibitory Concentration, Compound Used Alone",[1]; [2],32.0 ppm
same,"Minimum Inhibitory Concentration, Mixture","[1]; Table 1, concentration of the component in SP+PB mixture, SP/PB ratio 1/10-1/3, 6-7 days",26.7 ppm
same,"Minimum Inhibitory Concentration, Compound Used Alone",[1]; [3],53.0 ppm
same,"Minimum Inhibitory Concentration, Mixture","[1]; Table 2, concentration of the component in ZP+PB mixture, ZP/PB ratio 1/4-1/2, 7 days",26.7 ppm
same,"Minimum Inhibitory Concentration, Compound Used Alone",Pseudomonas oleovorans; [6],0.3 ppm
same,"Minimum Inhibitory Concentration, Mixture",Pseudomonas oleovorans; [7],< 0.1 ppm
same,"Minimum Inhibitory Concentration, Compound Used Alone",Pseudomonas oleovorans; [8],0.5 ppm
same,"Minimum Inhibitory Concentration, Mixture","Pseudomonas oleovorans; Table 2, concentration of the component in ZP+PB mixture, ZP/PB ratio 16-32, 6 days",0.2 ppm
same,"Minimum Inhibitory Concentration, Compound Used Alone",Aureobasidium pullulans; [2],256.0 ppm
same,"Minimum Inhibitory Concentration, Mixture",Aureobasidium pullulans; [4],48.0 ppm
same,"Minimum Inhibitory Concentration, Compound Used Alone",Aureobasidium pullulans; [3],288.0 ppm
same,"Minimum Inhibitory Concentration, Mixture","Aureobasidium pullulans; Table 2, concentration of the component in ZP+PB mixture, ZP/PB ratio 1/32-1/16, 7 days",80.0 ppm
same,"Minimum Inhibitory Concentration, Compound Used Alone",Cephalosporium sp.; [2],256.0 ppm
same,"Minimum Inhibitory Concentration, Mixture",Cephalosporium sp.; [9],12.0 ppm
same,"Minimum Inhibitory Concentration, Compound Used Alone",Cephalosporium sp.; [3],170.7 ppm
same,"Minimum Inhibitory Concentration, Mixture","Cephalosporium sp.; Table 2, concentration of the component in ZP+PB mixture, ZP/PB ratio 1/16-1/8, 7 days",42.7 ppm
same,"Minimum Inhibitory Concentration, Compound Used Alone",Fusarium solani; [2],128.0 ppm
same,"Minimum Inhibitory Concentration, Mixture",Fusarium solani; [9],32.0 ppm
same,"Minimum Inhibitory Concentration, Compound Used Alone",Fusarium solani; [3],85.3 ppm
same,"Minimum Inhibitory Concentration, Mixture",Fusarium solani; [10],37.3 ppm
same,"Minimum Inhibitory Concentration, Compound Used Alone",Alcaligens faecalis; [6],1.4 ppm
same,"Minimum Inhibitory Concentration, Mixture","Alcaligens faecalis; Table 1, concentration of the component in SP+PB mixture, SP/PB ratio 5-41, 3 days",0.5 ppm
same,"Minimum Inhibitory Concentration, Compound Used Alone",Alcaligens faecalis; [8],3.3 ppm
same,"Minimum Inhibitory Concentration, Mixture","Alcaligens faecalis; Table 2, concentration of the component in ZP+PB mixture, ZP/PB ratio 8-32, 6 days",0.6 ppm
same,"Minimum Inhibitory Concentration, Compound Used Alone",Aspergillus niger; [2],1536.0 ppm
same,"Minimum Inhibitory Concentration, Mixture","Aspergillus niger; Table 1, concentration of the component in SP+PB mixture, SP/PB ratio 1/10, 6-7 days",256.0 ppm
same,"Minimum Inhibitory Concentration, Compound Used Alone",Aspergillus niger; [3],1024.0 ppm
same,"Minimum Inhibitory Concentration, Mixture",Aspergillus niger; [5],298.7 ppm
same,"Minimum Inhibitory Concentration, Compound Used Alone",Pseudomonas Stutzeri; [6],0.3 ppm
same,"Minimum Inhibitory Concentration, Mixture","Pseudomonas Stutzeri; Table 1, concentration of the component in SP+PB mixture, SP/PB ratio 325-650, 3 days",0.1 ppm
same,"Minimum Inhibitory Concentration, Compound Used Alone",Pseudomonas Stutzeri; [8],0.3 ppm
same,"Minimum Inhibitory Concentration, Mixture","Pseudomonas Stutzeri; Table 2, concentration of the component in ZP+PB mixture, ZP/PB ratio 16-128, 6 days",< 0.1 ppm
same,"Minimum Inhibitory Concentration, Compound Used Alone",Penicillin pinophilium; [2],256.0 ppm
same,"Minimum Inhibitory Concentration, Mixture",Penicillin pinophilium; [4],48.0 ppm
same,"Minimum Inhibitory Concentration, Compound Used Alone",Penicillin pinophilium; [3],128.0 ppm
same,"Minimum Inhibitory Concentration, Mixture","Penicillin pinophilium; Table 2, concentration of the component in ZP+PB mixture, ZP/PB ratio 1/8, 7 days",32.0 ppm
same,"Minimum Inhibitory Concentration, Compound Used Alone",Proteus mirabilis; [6],> 2048.0 ppm
same,"Minimum Inhibitory Concentration, Mixture","Proteus mirabilis; Table 1, concentration of the component in SP+PB mixture, SP/PB ratio 1/20-1, 3 days",288.0 ppm
same,"Minimum Inhibitory Concentration, Compound Used Alone",Proteus mirabilis; [8],> 2048.0 ppm
same,"Minimum Inhibitory Concentration, Mixture","Proteus mirabilis; Table 2, concentration of the component in ZP+PB mixture, ZP/PB ratio 1/32, 6 days",64.0 ppm
same,"Minimum Inhibitory Concentration, Compound Used Alone",Chaetomium globosium; [2],24.0 ppm
same,"Minimum Inhibitory Concentration, Mixture","Chaetomium globosium; Table 1, concentration of the component in SP+PB mixture, SP/PB ratio 1/10-1/5, 6-7 days",16.0 ppm
same,"Minimum Inhibitory Concentration, Compound Used Alone",Chaetomium globosium; [3],85.3 ppm
same,"Minimum Inhibitory Concentration, Mixture",Chaetomium globosium; [10],37.3 ppm
same,"Minimum Inhibitory Concentration, Compound Used Alone",Pseudomonas aeruginosa; [6],0.7 ppm
same,"Minimum Inhibitory Concentration, Mixture","Pseudomonas aeruginosa; Table 1, concentration of the component in SP+PB mixture, SP/PB ratio 163-325, 3 days",0.3 ppm
same,"Minimum Inhibitory Concentration, Compound Used Alone",Pseudomonas aeruginosa; [8],1.0 ppm
same,"Minimum Inhibitory Concentration, Mixture","Pseudomonas aeruginosa; Table 2, concentration of the component in ZP+PB mixture, ZP/PB ratio 128-256, 6 days",0.5 ppm
same,"Minimum Inhibitory Concentration, Compound Used Alone",Pseudomonas fluorescens; [6],10.7 ppm
same,"Minimum Inhibitory Concentration, Mixture","Pseudomonas fluorescens; Table 1, concentration of the component in SP+PB mixture, SP/PB ratio 3-10, 3 days",1.2 ppm
same,"Minimum Inhibitory Concentration, Compound Used Alone",Pseudomonas fluorescens; [8],6.7 ppm
same,"Minimum Inhibitory Concentration, Mixture","Pseudomonas fluorescens; Table 2, concentration of the component in ZP+PB mixture, ZP/PB ratio 8-16, 6 days",0.4 ppm
same,"Minimum Inhibitory Concentration, Compound Used Alone",Citrobacter freundii; [6],0.5 ppm
same,"Minimum Inhibitory Concentration, Mixture","Citrobacter freundii; Table 1, concentration of the component in SP+PB mixture, SP/PB ratio 41-81, 3 days",0.1 ppm
same,"Minimum Inhibitory Concentration, Compound Used Alone",Citrobacter freundii; [8],0.4 ppm
same,"Minimum Inhibitory Concentration, Mixture","Citrobacter freundii; Table 2, concentration of the component in ZP+PB mixture, ZP/PB ratio 16-64, 6 days",0.1 ppm
same,"Minimum Inhibitory Concentration, Compound Used Alone",Pseudomonas rubescens; [6],< 0.1 ppm
same,"Minimum Inhibitory Concentration, Mixture",Pseudomonas rubescens; [7],< 0.1 ppm
same,"Minimum Inhibitory Concentration, Compound Used Alone",Pseudomonas rubescens; [8],< 0.1 ppm
same,"Minimum Inhibitory Concentration, Mixture","Pseudomonas rubescens; Table 2, concentration of the component in ZP+PB mixture, ZP/PB ratio 256, 6 days",< 0.1 ppm
same,"Minimum Inhibitory Concentration, Mixture",Fusarium sp.; [9],32.0 ppm
same,"Minimum Inhibitory Concentration, Compound Used Alone","Fusarium sp.; Table 2, alone, Tryptic Soy Broth, 7 days, PB sulfate 7730 units/mg",106.7 ppm

# Source: patent publication US5696083A, “Personal care composition containing pyrithione and polymyxin” (Olin Corporation, priority 1994, dated 1997)
